{"source": "patent US20180339016A1", "about": "(priority 2015, published 2018)", "key": {"[1]": {"system": "Escherichia coli (ATCC 25922)", "settings": "peptide alone; peptide concentration required to inhibit growth by 20% (so in the source)", "description": "The N-terminus of the peptides were acetylated and the C-terminus was amidated. The kinked structure can rapidly reduce the alpha-helical content, thereby greatly reducing the toxicity of the peptide against host cells. In addition, because of the potential to show specificity for the Gram-negative bacterial membrane, Pro-mutants were prepared by site-directed mutagenesis. Using the prepared peptides, their MIC for the Gram-negative bacterium E. coli and the Gram-positive bacterium S. aureus and their hemolytic activity for host cells were examined (Table 1).\n(§1) To measure the synergy between the membrane-activating peptides and the repositioning drug, a 10× compound was prepared, and then serially diluted ⅔-fold with distilled water. An MH broth (900 μl) was added to and mixed with the 10× compound (100 μl), and then 200 μL of the mixture was taken and added to a 96-well plate. E. coli cultured for one day was adjusted to 0.5 MCF using MCFarland, and diluted 10-fold, and then 10 μl of the dilution was added to each well of the plate (5×10^5 CFU/mL). After addition of the bacterial cells, plate was incubated at 37° C. for 18 hours, and then the OD value at UV-Vis (600 nm) was measured. Cell viability (%)=(OD600 of sample−OD600 of negative control)/(OD600 of positive control−OD600 of negative control)×100."}, "E. coli ATCC 25922": {"system": "E. coli ATCC 25922", "experiment": "Antibiotic interaction assay (Wimley), 2/3 broth microdilution: MIC alone, MIC of combination, FICI", "assay_type": "cell-based", "settings": "for MIC: Escherichia coli; for MIC (μM) against E. coli ATCC, combination of 3 compounds / MIC (μM) against E. coli ATCC, combination of two compounds: concentration of labelled component; for MIC of combination (μM): antibiotic: concentration of labelled drug in combination with KL-L9P; for FICI of drug with KL-L9P / FICIKL-L9P / FICIantibiotic: labelled drug + KL-L9P; for MIC of drug with 1 μM KL-L9P / dilution of MIC relative to drug alone: with 1 μM of KL-L9P", "description": "Synergy was evaluated by an antibiotic interaction assay (Wimley, 2015) Using the method of Wimley (BBA, 2015, v. 1848(1), pp. 8-15), synergy between the membrane-activating peptide and an antibiotic was measured by an FICI value (FIG. 17). […] Thus, to accurately examine synergy, a ⅔ dilution method which observes MIC at denser concentration intervals is advantageous over a ½ dilution method in statistical terms. […] In the same manner, the MIC of an antibiotic or repositioning drug (second line) is measured. In the third line, the two compounds are mixed after putting half amount each, and the MIC thereof is measured.\nA broth microdilution technique (⅔ dilution) was used together with an MH broth. E. coli treated with an antibiotic and the peptide was incubated in a 37° C. incubator for 18 hours.\nas §1"}, "[2]": {"settings": "ATCC25922, 18 h, Tables 19-23, read-out: MIC (μM) against E. coli ATCC, 1 compound alone"}, "[3]": {"settings": "ATCC25922, 18 h, drug alone, <20% growth of positive control, read-out: MIC of antibiotic"}}, "note": "Where two headings read alike, the source gives them in different places."}
{"compound": "KLLKLLKKGLKLLK [KL L9G]", "values": [{"measurement": "MIC [μM] Against E. coli", "setting": "[1]", "value": 1.25, "unit": "µM"}]}
{"compound": "O=C(O)c1cn(C2CC2)c2cc(N3CCNCC3)c(F)cc2c1=O", "note": "[ciprofloxacin]", "values": [{"measurement": "synergy with KL-L9P", "setting": "E. coli ATCC 25922", "value": "not synergistic"}]}
{"compound": "KLLKLAKKPLKLLK [KL-L6AL9P]", "values": [{"measurement": "MIC [μM] Against E. coli", "setting": "[1]", "value": 89, "unit": "µM"}]}
{"compound": "CC(=O)Nc1ccc(O)cc1", "note": "[acetaminophen]", "values": [{"measurement": "synergy with KL-L9P", "setting": "E. coli ATCC 25922", "value": "not synergistic"}]}
{"compound": "CCC(C)(C)C(=O)O[C@H]1C[C@@H](C)C=C2C=C[C@H](C)[C@H](CC[C@@H]3C[C@@H](O)CC(=O)O3)[C@H]21", "note": "[simvastatin]", "values": [{"measurement": "MIC", "setting": "E. coli ATCC 25922; [2]", "value": "> 500", "unit": "µM"}, {"measurement": "MIC", "setting": "E. coli ATCC 25922; [3]", "value": "> 500", "unit": "µM"}, {"measurement": "MIC", "setting": "E. coli ATCC 25922; ATCC25922, simvastatin alone, read-out: MIC of simvastatin", "value": 750, "unit": "µM"}, {"measurement": "MIC (μM) against E. coli ATCC, combination of 3 compounds", "setting": "E. coli ATCC 25922; KL-L9P + colistin + simvastatin", "value": 33, "unit": "µM"}, {"measurement": "MIC (μM) against E. coli ATCC, combination of two compounds", "setting": "E. coli ATCC 25922; KL-L9P + simvastatin", "value": 53, "unit": "µM"}, {"measurement": "MIC (μM) against E. coli ATCC, combination of two compounds", "setting": "E. coli ATCC 25922; colistin + simvastatin", "value": 71, "unit": "µM"}, {"measurement": "MIC of combination (μM): antibiotic", "setting": "E. coli ATCC 25922", "value": 52.47, "unit": "µM"}, {"measurement": "FICI of drug with KL-L9P", "setting": "E. coli ATCC 25922", "value": 0.18}, {"measurement": "FICIKL-L9P", "setting": "E. coli ATCC 25922", "value": 0.11}, {"measurement": "FICIantibiotic", "setting": "E. coli ATCC 25922", "value": 0.07}]}
{"compound": "CC[C@H](C)C(=O)O[C@H]1C[C@@H](C)C=C2C=C[C@H](C)[C@H](CC[C@@H]3C[C@@H](O)CC(=O)O3)[C@H]21", "note": "[lovastatin]", "values": [{"measurement": "MIC", "setting": "E. coli ATCC 25922; [3]", "value": "> 500", "unit": "µM"}, {"measurement": "MIC of combination (μM): antibiotic", "setting": "E. coli ATCC 25922", "value": 74.07, "unit": "µM"}, {"measurement": "FICI of drug with KL-L9P", "setting": "E. coli ATCC 25922", "value": 0.24}, {"measurement": "FICIKL-L9P", "setting": "E. coli ATCC 25922", "value": 0.14}, {"measurement": "FICIantibiotic", "setting": "E. coli ATCC 25922", "value": 0.10}]}
{"compound": "KLAKLAKKPLKLAK [KLA-L9P]", "values": [{"measurement": "MIC [μM] Against E. coli", "setting": "[1]", "value": "> 200", "unit": "µM"}]}
{"compound": "KLLKLLKKSLKLLK [KL L9S]", "values": [{"measurement": "MIC [μM] Against E. coli", "setting": "[1]", "value": 1.25, "unit": "µM"}]}
{"compound": "CC(C)Cc1ccc([C@@H](C)C(=O)O)cc1", "note": "[(R)-ibuprofen]", "values": [{"measurement": "MIC", "setting": "E. coli ATCC 25922; [3]", "value": 12000, "unit": "µM"}, {"measurement": "MIC of combination (μM): antibiotic", "setting": "E. coli ATCC 25922", "value": 555.56, "unit": "µM"}, {"measurement": "FICI of drug with KL-L9P", "setting": "E. coli ATCC 25922", "value": 0.27}, {"measurement": "FICIKL-L9P", "setting": "E. coli ATCC 25922", "value": 0.23}, {"measurement": "FICIantibiotic", "setting": "E. coli ATCC 25922", "value": 0.05}]}
{"compound": "Cc1onc(-c2ccccc2Cl)c1C(=O)N[C@@H]1C(=O)N2[C@@H]1SC(C)(C)[C@@H]2C(=O)O", "note": "[cloxacillin]", "values": [{"measurement": "MIC", "setting": "E. coli ATCC 25922; [2]", "value": 70, "unit": "µM"}, {"measurement": "MIC", "setting": "E. coli ATCC 25922; [3]", "value": 74.1, "unit": "µM"}, {"measurement": "MIC (μM) against E. coli ATCC, combination of two compounds", "setting": "E. coli ATCC 25922; KL-L9P + cloxacillin", "value": 18, "unit": "µM"}, {"measurement": "MIC (μM) against E. coli ATCC, combination of 3 compounds", "setting": "E. coli ATCC 25922; KL-L9P + colistin + cloxacillin", "value": 9.4, "unit": "µM"}, {"measurement": "MIC (μM) against E. coli ATCC, combination of two compounds", "setting": "E. coli ATCC 25922; colistin + cloxacillin", "value": 38, "unit": "µM"}, {"measurement": "MIC of combination (μM): antibiotic", "setting": "E. coli ATCC 25922", "value": 17.78, "unit": "µM"}, {"measurement": "FICIKL-L9P", "setting": "E. coli ATCC 25922", "value": 0.25}, {"measurement": "FICIantibiotic", "setting": "E. coli ATCC 25922", "value": 0.24}, {"measurement": "FICI of drug with colistin", "setting": "E. coli ATCC 25922; labelled drug + colistin", "value": "about 1"}, {"measurement": "MIC of drug with 1 μM KL-L9P", "setting": "E. coli ATCC 25922", "value": 0.3, "unit": "µM"}, {"measurement": "dilution of MIC relative to drug alone", "setting": "E. coli ATCC 25922", "value": 128, "unit": "fold"}]}
{"compound": "N[C@@H]1CONC1=O", "note": "[D-cycloserine]", "values": [{"measurement": "synergy with KL-L9P", "setting": "E. coli ATCC 25922", "value": "not synergistic"}]}
{"compound": "KLLKLLKKDLKLLK [KL L9D]", "values": [{"measurement": "MIC [μM] Against E. coli", "setting": "[1]", "value": 20, "unit": "µM"}, {"measurement": "MIC of combination (μM): antibiotic (colistin)", "setting": "E. coli ATCC 25922; colistin concentration in combination with labelled peptide", "value": 0.09, "unit": "µM"}, {"measurement": "FICI of peptide with colistin", "setting": "E. coli ATCC 25922; labelled peptide + colistin", "value": 0.46}, {"measurement": "FICIPeptide", "setting": "E. coli ATCC 25922; labelled peptide + colistin", "value": 0.28}, {"measurement": "FICIcolistin / FICIantibiotic", "setting": "E. coli ATCC 25922; labelled peptide + colistin", "value": 0.18}, {"measurement": "FICI of peptide with simvastatin", "setting": "E. coli ATCC 25922; labelled peptide + simvastatin", "value": 0.61}, {"measurement": "FICIPeptide", "setting": "E. coli ATCC 25922; labelled peptide + simvastatin", "value": 0.5}, {"measurement": "FICIsimvastatin", "setting": "E. coli ATCC 25922; labelled peptide + simvastatin", "value": 0.11}, {"measurement": "MIC of peptide", "setting": "E. coli ATCC 25922; peptide alone", "value": 18, "unit": "µM"}, {"measurement": "MIC of combination (μM): peptide", "setting": "E. coli ATCC 25922; peptide concentration in combination with colistin", "value": 5, "unit": "µM"}, {"measurement": "MIC of combination (μM): peptide", "setting": "E. coli ATCC 25922; peptide concentration in combination with simvastatin", "value": 9, "unit": "µM"}, {"measurement": "MIC of combination (μM): simvastatin", "setting": "E. coli ATCC 25922; simvastatin concentration in combination with labelled peptide", "value": 83.33, "unit": "µM"}]}
{"compound": "COc1cc(/C=C/C(=O)CC(=O)/C=C/c2ccc(O)c(OC)c2)ccc1O", "note": "[curcumin]", "values": [{"measurement": "MIC", "setting": "E. coli ATCC 25922; [2]", "value": 300, "unit": "µM"}, {"measurement": "MIC", "setting": "E. coli ATCC 25922; [3]", "value": 396, "unit": "µM"}, {"measurement": "MIC (μM) against E. coli ATCC, combination of 3 compounds", "setting": "E. coli ATCC 25922; KL-L9P + colistin + curcumin", "value": 20, "unit": "µM"}, {"measurement": "MIC (μM) against E. coli ATCC, combination of two compounds", "setting": "E. coli ATCC 25922; KL-L9P + curcumin", "value": 79, "unit": "µM"}, {"measurement": "MIC (μM) against E. coli ATCC, combination of two compounds", "setting": "E. coli ATCC 25922; colistin + curcumin", "value": 83, "unit": "µM"}, {"measurement": "MIC of combination (μM): antibiotic", "setting": "E. coli ATCC 25922", "value": 78.70, "unit": "µM"}, {"measurement": "FICI of drug with KL-L9P", "setting": "E. coli ATCC 25922", "value": 0.30}, {"measurement": "FICIKL-L9P", "setting": "E. coli ATCC 25922", "value": 0.10}, {"measurement": "FICIantibiotic", "setting": "E. coli ATCC 25922", "value": 0.20}, {"measurement": "MIC of drug with 1 μM KL-L9P", "setting": "E. coli ATCC 25922", "value": 4, "unit": "µM"}, {"measurement": "dilution of MIC relative to drug alone", "setting": "E. coli ATCC 25922", "value": "about 330 fold"}]}
{"compound": "KLLKLLKKELKLLK [KL L9E]", "values": [{"measurement": "MIC [μM] Against E. coli", "setting": "[1]", "value": 5, "unit": "µM"}]}
